Data published in ChEMBL document CHEMBL1949549, “Concise synthesis of (+)-conduritol F and inositol analogues from naturally available (+)-proto-quercitol and their glucosidase inhibitory activity” (Bioorg Med Chem Lett, 2012).

Assays:
[1] = Inhibition of Baker's yeast Alpha-glucosidase-1 using p-nitrophenyl-alpha-D-glucopyranoside as substrate preincubated for 10 mins prior substrate addition measured after 20 mins by spectrophotometry; design: species or system Saccharomyces cerevisiae
[2] = target: Lysosomal alpha-glucosidase (Rattus norvegicus) (UniProt Q6P7A9); assay: Inhibition of rat intestinal alpha-glucosidase maltase using maltose as substrate at 10 mg/mL preincubated for 10 mins prior substrate addition measured after 40 mins by spectrophotometry
[3] = target: Sucrase-isomaltase, intestinal (Rattus norvegicus) (UniProt P23739); assay: Inhibition of rat intestinal alpha-glucosidase sucrase using sucrose as substrate at 10 mg/mL preincubated for 10 mins prior substrate addition measured after 40 mins by spectrophotometry
Saccharomyces cerevisiae [4] = assay: Ratio of acarbose IC50 to compound IC50 for Baker's yeast Alpha-glucosidase-1
Beta-galactosidase = target: T1, Beta-galactosidase (Homo sapiens, UniProt P16278); assay: Inhibition of beta-galactosidase
T1 sequence (P16278 whole entry): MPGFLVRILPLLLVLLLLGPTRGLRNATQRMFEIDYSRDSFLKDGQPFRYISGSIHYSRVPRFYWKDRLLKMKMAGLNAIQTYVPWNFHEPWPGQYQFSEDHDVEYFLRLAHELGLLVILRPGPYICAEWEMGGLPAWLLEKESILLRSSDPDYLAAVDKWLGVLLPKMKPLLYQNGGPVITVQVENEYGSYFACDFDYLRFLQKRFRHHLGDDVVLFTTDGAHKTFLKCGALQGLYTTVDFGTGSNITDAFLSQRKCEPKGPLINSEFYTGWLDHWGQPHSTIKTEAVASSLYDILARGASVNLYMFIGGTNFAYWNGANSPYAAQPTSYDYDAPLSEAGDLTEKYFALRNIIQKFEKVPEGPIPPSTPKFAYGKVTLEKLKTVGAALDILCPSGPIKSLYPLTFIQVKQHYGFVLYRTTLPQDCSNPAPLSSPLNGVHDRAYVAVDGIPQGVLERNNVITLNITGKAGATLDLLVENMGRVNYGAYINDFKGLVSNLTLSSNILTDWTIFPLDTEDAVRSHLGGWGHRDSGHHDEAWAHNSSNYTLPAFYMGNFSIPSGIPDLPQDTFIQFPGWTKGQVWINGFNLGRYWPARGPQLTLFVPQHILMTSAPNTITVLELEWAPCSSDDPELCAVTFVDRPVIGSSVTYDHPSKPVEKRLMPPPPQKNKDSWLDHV

Saccharomyces cerevisiae [5] = assay: Inhibition of Baker's yeast Alpha-glucosidase-1 using p-nitrophenyl-alpha-D-glucopyranoside as substrate at 10 mg/mL preincubated for 10 mins prior substrate addition measured after 20 mins by spectrophotometry

Chain of Lysosomal alpha-glucosidase (Rattus norvegicus) (Q6P7A9 whole entry): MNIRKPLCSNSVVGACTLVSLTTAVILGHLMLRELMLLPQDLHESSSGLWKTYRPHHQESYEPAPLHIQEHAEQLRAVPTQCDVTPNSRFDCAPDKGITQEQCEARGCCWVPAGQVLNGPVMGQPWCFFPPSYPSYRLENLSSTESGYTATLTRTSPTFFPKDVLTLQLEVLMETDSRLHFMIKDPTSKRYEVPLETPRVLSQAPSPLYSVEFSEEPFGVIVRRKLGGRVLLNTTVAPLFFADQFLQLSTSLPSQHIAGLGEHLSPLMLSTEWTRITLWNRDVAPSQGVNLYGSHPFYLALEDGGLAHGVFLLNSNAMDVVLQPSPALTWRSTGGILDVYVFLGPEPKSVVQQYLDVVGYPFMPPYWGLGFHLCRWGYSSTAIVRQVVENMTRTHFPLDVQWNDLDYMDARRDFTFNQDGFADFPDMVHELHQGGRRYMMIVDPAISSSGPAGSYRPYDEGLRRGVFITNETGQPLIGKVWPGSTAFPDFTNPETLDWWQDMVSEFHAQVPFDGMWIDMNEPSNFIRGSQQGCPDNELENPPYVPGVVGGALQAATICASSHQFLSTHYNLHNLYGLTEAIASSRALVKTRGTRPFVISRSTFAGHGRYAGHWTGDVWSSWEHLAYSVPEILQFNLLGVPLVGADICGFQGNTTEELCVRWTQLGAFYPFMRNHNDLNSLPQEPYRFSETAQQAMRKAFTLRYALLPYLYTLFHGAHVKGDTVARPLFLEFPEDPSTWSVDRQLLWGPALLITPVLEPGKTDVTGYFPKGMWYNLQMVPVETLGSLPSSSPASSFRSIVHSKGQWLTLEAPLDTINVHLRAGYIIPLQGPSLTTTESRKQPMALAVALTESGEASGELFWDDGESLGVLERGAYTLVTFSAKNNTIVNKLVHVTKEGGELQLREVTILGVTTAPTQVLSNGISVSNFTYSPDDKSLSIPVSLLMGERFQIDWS
Chain of Sucrase-isomaltase, intestinal (Rattus norvegicus) (P23739 1-1013 limits assumed): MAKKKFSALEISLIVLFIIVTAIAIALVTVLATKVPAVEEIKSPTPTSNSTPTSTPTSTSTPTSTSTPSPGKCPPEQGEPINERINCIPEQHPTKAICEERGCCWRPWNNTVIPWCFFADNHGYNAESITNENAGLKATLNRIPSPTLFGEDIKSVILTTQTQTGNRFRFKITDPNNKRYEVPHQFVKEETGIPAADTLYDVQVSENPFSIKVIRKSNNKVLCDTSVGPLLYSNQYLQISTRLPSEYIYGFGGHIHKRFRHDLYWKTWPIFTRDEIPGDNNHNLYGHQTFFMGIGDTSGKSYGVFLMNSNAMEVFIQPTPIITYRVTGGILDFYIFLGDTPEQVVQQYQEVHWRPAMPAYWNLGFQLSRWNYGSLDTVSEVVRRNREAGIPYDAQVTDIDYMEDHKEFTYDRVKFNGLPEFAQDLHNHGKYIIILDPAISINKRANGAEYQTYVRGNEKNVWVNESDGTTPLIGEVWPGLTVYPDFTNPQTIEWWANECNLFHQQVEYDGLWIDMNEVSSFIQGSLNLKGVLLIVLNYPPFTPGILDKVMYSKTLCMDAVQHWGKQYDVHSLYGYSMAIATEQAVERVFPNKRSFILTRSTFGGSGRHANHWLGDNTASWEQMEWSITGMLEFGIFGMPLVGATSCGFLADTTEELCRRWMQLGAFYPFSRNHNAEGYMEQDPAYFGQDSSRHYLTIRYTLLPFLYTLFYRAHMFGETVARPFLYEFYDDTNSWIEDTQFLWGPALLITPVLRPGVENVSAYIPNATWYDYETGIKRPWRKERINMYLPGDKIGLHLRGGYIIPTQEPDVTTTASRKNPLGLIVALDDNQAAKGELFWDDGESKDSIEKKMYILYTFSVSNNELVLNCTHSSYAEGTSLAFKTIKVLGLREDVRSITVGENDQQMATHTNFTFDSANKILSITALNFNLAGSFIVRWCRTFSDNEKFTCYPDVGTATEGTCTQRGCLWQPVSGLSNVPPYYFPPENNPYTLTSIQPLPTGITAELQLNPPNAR
Chain of Sucrase-isomaltase, intestinal (Rattus norvegicus) (P23739 1014-1841 limits assumed): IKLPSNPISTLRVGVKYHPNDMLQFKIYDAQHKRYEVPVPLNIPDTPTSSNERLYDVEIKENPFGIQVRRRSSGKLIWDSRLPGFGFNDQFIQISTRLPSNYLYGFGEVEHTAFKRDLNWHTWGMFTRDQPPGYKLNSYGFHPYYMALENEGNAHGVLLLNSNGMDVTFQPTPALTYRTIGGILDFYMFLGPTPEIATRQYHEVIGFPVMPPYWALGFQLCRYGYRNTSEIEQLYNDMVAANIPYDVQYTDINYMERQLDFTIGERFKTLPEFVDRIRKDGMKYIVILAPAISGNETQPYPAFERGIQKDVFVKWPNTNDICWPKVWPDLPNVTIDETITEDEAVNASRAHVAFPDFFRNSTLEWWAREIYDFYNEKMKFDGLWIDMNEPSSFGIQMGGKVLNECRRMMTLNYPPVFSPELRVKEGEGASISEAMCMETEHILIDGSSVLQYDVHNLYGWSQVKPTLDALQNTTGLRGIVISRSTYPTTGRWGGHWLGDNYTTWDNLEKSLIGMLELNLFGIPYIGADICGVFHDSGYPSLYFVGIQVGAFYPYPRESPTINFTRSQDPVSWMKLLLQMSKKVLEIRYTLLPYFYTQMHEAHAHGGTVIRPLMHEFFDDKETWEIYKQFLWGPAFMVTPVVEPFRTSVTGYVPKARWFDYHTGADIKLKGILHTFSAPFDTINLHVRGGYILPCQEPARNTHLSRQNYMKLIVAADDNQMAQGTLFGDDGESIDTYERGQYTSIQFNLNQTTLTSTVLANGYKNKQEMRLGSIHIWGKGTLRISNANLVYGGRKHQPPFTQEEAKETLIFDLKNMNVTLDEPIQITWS

Row | Compound | IC50 [1] | inhibition [2] | inhibition [3] | Ratio IC50 (Saccharomyces cerevisiae [4]) | IC50 (Beta-galactosidase) | inhibition (Saccharomyces cerevisiae [5])
1 | O[C@@H]1[C@@H](O)[C@@H](O)C=C[C@H]1O [listing 1 of 2 here] | 86.1 µM |  |  |  |  | 
2 | O[C@H]1[C@H](O)[C@H](O)[C@@H](O)[C@H](O)[C@H]1O | 1260 µM | < 30% | < 30% |  |  | 
3 | C[C@H]1O[C@H](O[C@H]2[C@H](O)[C@@H](O)[C@@H](O[C@H]3[C@H](O)[C@@H](O)C(O)O[C@@H]3CO)O[C@@H]2CO)[C@H](O)[C@@H](O)[C@@H]1N[C@H]1C=C(CO)[C@@H](O)[C@H](O)[C@H]1O (stereo not given in full) [ACARBOSE] | 404 µM |  |  |  |  | 
4 | O[C@@H]1[C@@H](O)[C@@H](O)C=C[C@H]1O [listing 2 of 2 here] |  | < 30% | < 30% | 5 |  | 
5 | O[C@H]1[C@@H](O)[C@@H](O)[C@@H](O)[C@@H](O)[C@@H]1O | 476 µM | < 30% | < 30% |  |  | 
6 | O[C@@H]1[C@@H](O)[C@@H](O)C=C[C@H]1O (relative stereo) |  |  |  |  | 600 µM | 
7 | OC1[C@@H](O)[C@H](O)C[C@@H](O)[C@@H]1O (stereo not given in full) |  | < 30% | < 30% |  |  | < 30%
